Assay results from patent publication US10738028B2, “Spiro three-membered ring, spiro five-membered ring peptide deformylase inhibitor and use thereof in antibacteria and anti-tumor” (priority 2016, dated 2020).
Values after ≈ are worked out from the molar mass of the structure shown.

What was measured:
Assay type in all cases: cell-based
[1] = system: HCT-116 colorectal cancer cell line; experiment: CCK-8 proliferation inhibition; settings: Homo sapiens, HCT-116, 72 h, concentration of 30 μM; 72 hours; CCK-8; read-out: HCT116 inhibition rate/%
Summary of the method: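 Proliferation over 72 hours of compound treatment was measured with CCK-8 against a 1‰ DMSO control.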

[2] = system: Streptococcus pneoumoniae (SPN); experiment: MIC, two-fold agar dilution (CLSI), clinical isolates
Excerpt: (§1) 1. The invention adopts the two-fold agar dilution method recommended by the operating procedure of antimicrobial susceptibility testing set by American Clinical and Laboratory Standards Institute (CLSI) to determine the Minimum Inhibitory Concentration (MIC) of the test samples against the tested strains.

[3] = system: methicillin-resistant Staphylococcus aureus (MRSA); experiment: as above
Excerpt: as §1

[4] = system: methicillin-sensitive Staphylococcus epidermidis (MSSE); experiment: as above
Excerpt: as §1

[5] = system: Escherichia coli (including ESBLs, non-ESBLs); experiment: as above
Excerpt: as §1

[6] = system: Moraxella catarrhalis (BCA); experiment: as above
Excerpt: as §1

[7] = system: methicillin-resistant Staphylococcus epidermidis (MRSE); experiment: as above
Excerpt: as §1

[8] = system: methicillin-sensitive Staphylococcus aureus (MSSA); experiment: as above
Excerpt: as §1

[9] = system: Enterococcus faecium (EFM); experiment: as above
Excerpt: as §1

[10] = system: Enterococcus faecalis (EFA); experiment: as above
Excerpt: as §1

`CCCC[C@H](CN(O)C=O)C(=O)N1CC2(CC2)C[C@H]1C(=O)Nc1nncs1` [Example 23, (S)-5-((R)-2-((N-hydroxyformamido)methyl)hexanoyl)-N-(1,3,4-thiadiazol-2-yl)-5-azaspiro[2.4]heptane-6-carboxamide] gave an inhibition at 30 µM [1] of 7%, an MIC (anti-bacterial activity) ([2]; strain SPN 16-2) of 15 µg/mL (≈ 37.9 µM) and an MIC (anti-bacterial activity) ([2]; strain SPN 16-4) of 1 µg/mL (≈ 2.53 µM). The MIC (anti-bacterial activity) ([3]; strain MRSA 15-1) was 0.25 µg/mL (≈ 0.632 µM), the MIC (anti-bacterial activity) ([3]; strain MRSA 15-2) was 2 µg/mL (≈ 5.06 µM) and the MIC (anti-bacterial activity) ([3]; strain MRSA 15-3) was 0.25 µg/mL (≈ 0.632 µM). For the same compound, the MIC (anti-bacterial activity) ([3]; strain MRSA 15-4) was 2 µg/mL (≈ 5.06 µM), the MIC (anti-bacterial activity) ([4]; strain MSSE 15-3) was 0.25 µg/mL (≈ 0.632 µM) and the MIC (anti-bacterial activity) ([4]; strain MSSE 15-4) was 0.25 µg/mL (≈ 0.632 µM). For the same compound, the MIC (anti-bacterial activity) ([4]; strain MSSE 15-5) was 0.25 µg/mL (≈ 0.632 µM), the MIC (anti-bacterial activity) ([4]; strain MSSE 15-6) was 0.25 µg/mL (≈ 0.632 µM) and the MIC (anti-bacterial activity) ([5]; strain ECO+ 15-1) was > 32 µg/mL. For the same compound, the MIC (anti-bacterial activity) ([5]; strain ECO+ 15-2) was > 32 µg/mL, the MIC (anti-bacterial activity) ([5]; strain ECO+ 15-3) was > 32 µg/mL and the MIC (anti-bacterial activity) ([5]; strain ECO+ 15-4) was > 32 µg/mL. For the same compound, the MIC (anti-bacterial activity) ([5]; strain ECO− 15-1) was > 32 µg/mL, the MIC (anti-bacterial activity) ([5]; strain ECO− 15-2) was > 32 µg/mL and the MIC (anti-bacterial activity) ([5]; strain ECO− 15-3) was > 32 µg/mL. For the same compound, the MIC (anti-bacterial activity) ([5]; strain ECO− 15-4) was > 32 µg/mL, the MIC (anti-bacterial activity) ([6]; strain BCA 14-1) was 8 µg/mL (≈ 20.2 µM) and the MIC (anti-bacterial activity) ([6]; strain BCA 14-4) was 4 µg/mL (≈ 10.1 µM). For the same compound, the MIC (anti-bacterial activity) ([6]; strain BCA 14-5) was 1 µg/mL (≈ 2.53 µM), the MIC (anti-bacterial activity) ([6]; strain BCA 14-6) was 4 µg/mL (≈ 10.1 µM) and the MIC (anti-bacterial activity) ([6]; strain BCA 14-7) was 2 µg/mL (≈ 5.06 µM). It also gave an MIC (anti-bacterial activity) ([6]; strain BCA 14-8) of 2 µg/mL (≈ 5.06 µM), an MIC (anti-bacterial activity) ([6]; strain BCA 14-10) of 1 µg/mL (≈ 2.53 µM) and an MIC (anti-bacterial activity) ([7]; strain MRSE 15-1) of 0.25 µg/mL (≈ 0.632 µM). The MIC (anti-bacterial activity) ([7]; strain MRSE 15-2) was 0.25 µg/mL (≈ 0.632 µM), the MIC (anti-bacterial activity) ([7]; strain MRSE 15-3) was 0.25 µg/mL (≈ 0.632 µM) and the MIC (anti-bacterial activity) ([7]; strain MRSE 15-7) was 1 µg/mL (≈ 2.53 µM). For the same compound, the MIC (anti-bacterial activity) ([8]; strain MSSA 15-3) was 1 µg/mL (≈ 2.53 µM), the MIC (anti-bacterial activity) ([8]; strain MSSA 15-4) was 1 µg/mL (≈ 2.53 µM) and the MIC (anti-bacterial activity) ([8]; strain MSSA 15-5) was 0.25 µg/mL (≈ 0.632 µM). The MIC (anti-bacterial activity) ([8]; strain MSSA 15-6) was 0.25 µg/mL (≈ 0.632 µM), the MIC (anti-bacterial activity) ([9]; strain EFM 15-1) was 1 µg/mL (≈ 2.53 µM) and the MIC (anti-bacterial activity) ([9]; strain EFM 15-2) was 8 µg/mL (≈ 20.2 µM). For the same compound, the MIC (anti-bacterial activity) ([9]; strain EFM 15-3) was 0.5 µg/mL (≈ 1.26 µM), the MIC (anti-bacterial activity) ([9]; strain EFM 15-4) was 8 µg/mL (≈ 20.2 µM) and the MIC (anti-bacterial activity) ([9]; strain EFM 15-5) was 0.5 µg/mL (≈ 1.26 µM). For the same compound, the MIC (anti-bacterial activity) ([9]; strain EFM 15-6) was 8 µg/mL (≈ 20.2 µM), the MIC (anti-bacterial activity) ([10]; strain EFA 15-1) was 32 µg/mL (≈ 80.9 µM) and the MIC (anti-bacterial activity) ([10]; strain EFA 15-2) was 32 µg/mL (≈ 80.9 µM). The MIC (anti-bacterial activity) ([10]; strain EFA 15-3) was 1 µg/mL (≈ 2.53 µM), the MIC (anti-bacterial activity) ([10]; strain EFA 15-4) was 32 µg/mL (≈ 80.9 µM) and the MIC (anti-bacterial activity) ([10]; strain EFA 15-5) was 32 µg/mL (≈ 80.9 µM). It also gave an MIC (anti-bacterial activity) ([10]; strain EFA 15-6) of 32 µg/mL (≈ 80.9 µM) and an MIC (anti-bacterial activity) ([10]; strain EFA 15-9) of 32 µg/mL (≈ 80.9 µM).

`CCCC[C@H](CN(O)C=O)C(=O)N1CC2(CC2)C[C@H]1c1nc2ccccc2n1CCN(C)C` [Example 24] was tested, and the inhibition at 30 µM [1] was 2%, the MIC (anti-bacterial activity) ([2]; strain SPN 16-2) was 4 µg/mL (≈ 8.78 µM) and the MIC (anti-bacterial activity) ([2]; strain SPN 16-4) was 1 µg/mL (≈ 2.19 µM). It also gave an MIC (anti-bacterial activity) ([3]; strain MRSA 15-1) of 8 µg/mL (≈ 17.6 µM), an MIC (anti-bacterial activity) ([3]; strain MRSA 15-2) of 32 µg/mL (≈ 70.2 µM) and an MIC (anti-bacterial activity) ([3]; strain MRSA 15-3) of 32 µg/mL (≈ 70.2 µM). For the same compound, the MIC (anti-bacterial activity) ([3]; strain MRSA 15-4) was 8 µg/mL (≈ 17.6 µM), the MIC (anti-bacterial activity) ([4]; strain MSSE 15-3) was 8 µg/mL (≈ 17.6 µM) and the MIC (anti-bacterial activity) ([4]; strain MSSE 15-4) was 2 µg/mL (≈ 4.39 µM). For the same compound, the MIC (anti-bacterial activity) ([4]; strain MSSE 15-5) was 2 µg/mL (≈ 4.39 µM), the MIC (anti-bacterial activity) ([4]; strain MSSE 15-6) was 2 µg/mL (≈ 4.39 µM) and the MIC (anti-bacterial activity) ([5]; strain ECO+ 15-1) was 8 µg/mL (≈ 17.6 µM). For the same compound, the MIC (anti-bacterial activity) ([5]; strain ECO+ 15-2) was 16 µg/mL (≈ 35.1 µM), the MIC (anti-bacterial activity) ([5]; strain ECO+ 15-3) was 16 µg/mL (≈ 35.1 µM) and the MIC (anti-bacterial activity) ([5]; strain ECO+ 15-4) was 16 µg/mL (≈ 35.1 µM). For the same compound, the MIC (anti-bacterial activity) ([5]; strain ECO− 15-1) was 8 µg/mL (≈ 17.6 µM), the MIC (anti-bacterial activity) ([5]; strain ECO− 15-2) was 16 µg/mL (≈ 35.1 µM) and the MIC (anti-bacterial activity) ([5]; strain ECO− 15-3) was 32 µg/mL (≈ 70.2 µM). For the same compound, the MIC (anti-bacterial activity) ([5]; strain ECO− 15-4) was 16 µg/mL (≈ 35.1 µM), the MIC (anti-bacterial activity) ([6]; strain BCA 14-1) was 32 µg/mL (≈ 70.2 µM) and the MIC (anti-bacterial activity) ([6]; strain BCA 14-4) was 16 µg/mL (≈ 35.1 µM). The MIC (anti-bacterial activity) ([6]; strain BCA 14-5) was 8 µg/mL (≈ 17.6 µM), the MIC (anti-bacterial activity) ([6]; strain BCA 14-6) was 32 µg/mL (≈ 70.2 µM) and the MIC (anti-bacterial activity) ([6]; strain BCA 14-7) was 8 µg/mL (≈ 17.6 µM). The MIC (anti-bacterial activity) ([6]; strain BCA 14-8) was 8 µg/mL (≈ 17.6 µM), the MIC (anti-bacterial activity) ([6]; strain BCA 14-10) was 8 µg/mL (≈ 17.6 µM) and the MIC (anti-bacterial activity) ([7]; strain MRSE 15-1) was 8 µg/mL (≈ 17.6 µM). For the same compound, the MIC (anti-bacterial activity) ([7]; strain MRSE 15-2) was 8 µg/mL (≈ 17.6 µM), the MIC (anti-bacterial activity) ([7]; strain MRSE 15-3) was 8 µg/mL (≈ 17.6 µM) and the MIC (anti-bacterial activity) ([7]; strain MRSE 15-7) was 8 µg/mL (≈ 17.6 µM). It also gave an MIC (anti-bacterial activity) ([8]; strain MSSA 15-3) of 8 µg/mL (≈ 17.6 µM), an MIC (anti-bacterial activity) ([8]; strain MSSA 15-4) of 8 µg/mL (≈ 17.6 µM) and an MIC (anti-bacterial activity) ([8]; strain MSSA 15-5) of 8 µg/mL (≈ 17.6 µM). For the same compound, the MIC (anti-bacterial activity) ([8]; strain MSSA 15-6) was 8 µg/mL (≈ 17.6 µM), the MIC (anti-bacterial activity) ([9]; strain EFM 15-1) was 4 µg/mL (≈ 8.78 µM) and the MIC (anti-bacterial activity) ([9]; strain EFM 15-2) was 8 µg/mL (≈ 17.6 µM). It also gave an MIC (anti-bacterial activity) ([9]; strain EFM 15-3) of 2 µg/mL (≈ 4.39 µM), an MIC (anti-bacterial activity) ([9]; strain EFM 15-4) of 8 µg/mL (≈ 17.6 µM) and an MIC (anti-bacterial activity) ([9]; strain EFM 15-5) of 4 µg/mL (≈ 8.78 µM). It also gave an MIC (anti-bacterial activity) ([9]; strain EFM 15-6) of 8 µg/mL (≈ 17.6 µM), an MIC (anti-bacterial activity) ([10]; strain EFA 15-1) of 32 µg/mL (≈ 70.2 µM) and an MIC (anti-bacterial activity) ([10]; strain EFA 15-2) of 32 µg/mL (≈ 70.2 µM). The MIC (anti-bacterial activity) ([10]; strain EFA 15-3) was 8 µg/mL (≈ 17.6 µM), the MIC (anti-bacterial activity) ([10]; strain EFA 15-4) was 32 µg/mL (≈ 70.2 µM) and the MIC (anti-bacterial activity) ([10]; strain EFA 15-5) was 32 µg/mL (≈ 70.2 µM). The MIC (anti-bacterial activity) ([10]; strain EFA 15-6) was 32 µg/mL (≈ 70.2 µM) and the MIC (anti-bacterial activity) ([10]; strain EFA 15-9) was 32 µg/mL (≈ 70.2 µM).
